Key:
[1] = target: Fibroblast growth factor receptor 3 (Homo sapiens) (UniProt P22607); settings: Compound concentration 20.0 uM, Protein concentration 2.0 uM, Result type QC Liability
Description: Thermal Shift Assay. Domain: start/stop: P449-E759

Peregrin (Homo sapiens) = target: T1, Peregrin (Homo sapiens) (UniProt P55201); settings: Compound concentration 20.0 uM, Protein concentration 2.0 uM, Result type QC Liability
T1 sequence (whole entry): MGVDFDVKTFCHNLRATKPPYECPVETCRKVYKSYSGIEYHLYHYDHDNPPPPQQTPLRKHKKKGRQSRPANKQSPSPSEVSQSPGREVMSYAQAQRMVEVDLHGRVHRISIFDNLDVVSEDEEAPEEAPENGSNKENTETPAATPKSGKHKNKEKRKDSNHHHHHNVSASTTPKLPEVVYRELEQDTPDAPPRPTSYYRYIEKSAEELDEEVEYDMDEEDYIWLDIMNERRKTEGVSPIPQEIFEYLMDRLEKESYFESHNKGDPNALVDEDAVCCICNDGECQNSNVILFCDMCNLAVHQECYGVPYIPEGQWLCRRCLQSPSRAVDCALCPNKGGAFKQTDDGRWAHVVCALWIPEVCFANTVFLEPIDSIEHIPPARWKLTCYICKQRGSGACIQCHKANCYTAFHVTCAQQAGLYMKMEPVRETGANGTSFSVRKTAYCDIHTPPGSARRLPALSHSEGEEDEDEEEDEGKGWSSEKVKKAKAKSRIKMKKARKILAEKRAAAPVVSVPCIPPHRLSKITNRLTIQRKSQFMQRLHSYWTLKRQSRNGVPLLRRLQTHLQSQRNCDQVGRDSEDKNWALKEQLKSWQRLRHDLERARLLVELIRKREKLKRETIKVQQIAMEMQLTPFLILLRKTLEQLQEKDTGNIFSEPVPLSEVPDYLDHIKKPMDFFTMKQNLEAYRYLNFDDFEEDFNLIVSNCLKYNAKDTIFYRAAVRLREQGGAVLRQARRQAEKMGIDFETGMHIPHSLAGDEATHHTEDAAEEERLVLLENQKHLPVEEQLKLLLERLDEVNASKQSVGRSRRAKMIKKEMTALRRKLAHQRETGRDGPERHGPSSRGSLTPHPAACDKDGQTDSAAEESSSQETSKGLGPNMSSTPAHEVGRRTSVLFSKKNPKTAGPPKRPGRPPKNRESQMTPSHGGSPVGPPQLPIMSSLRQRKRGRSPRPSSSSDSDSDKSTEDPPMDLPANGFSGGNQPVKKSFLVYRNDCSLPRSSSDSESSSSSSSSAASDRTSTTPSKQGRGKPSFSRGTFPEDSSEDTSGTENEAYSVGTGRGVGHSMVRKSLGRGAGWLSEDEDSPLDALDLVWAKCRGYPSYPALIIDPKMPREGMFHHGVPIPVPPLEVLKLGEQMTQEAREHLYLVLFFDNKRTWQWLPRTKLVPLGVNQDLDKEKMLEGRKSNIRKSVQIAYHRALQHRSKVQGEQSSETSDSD

Chain of Fibroblast growth factor receptor 3 (Homo sapiens) (P22607 23-806 limits assumed): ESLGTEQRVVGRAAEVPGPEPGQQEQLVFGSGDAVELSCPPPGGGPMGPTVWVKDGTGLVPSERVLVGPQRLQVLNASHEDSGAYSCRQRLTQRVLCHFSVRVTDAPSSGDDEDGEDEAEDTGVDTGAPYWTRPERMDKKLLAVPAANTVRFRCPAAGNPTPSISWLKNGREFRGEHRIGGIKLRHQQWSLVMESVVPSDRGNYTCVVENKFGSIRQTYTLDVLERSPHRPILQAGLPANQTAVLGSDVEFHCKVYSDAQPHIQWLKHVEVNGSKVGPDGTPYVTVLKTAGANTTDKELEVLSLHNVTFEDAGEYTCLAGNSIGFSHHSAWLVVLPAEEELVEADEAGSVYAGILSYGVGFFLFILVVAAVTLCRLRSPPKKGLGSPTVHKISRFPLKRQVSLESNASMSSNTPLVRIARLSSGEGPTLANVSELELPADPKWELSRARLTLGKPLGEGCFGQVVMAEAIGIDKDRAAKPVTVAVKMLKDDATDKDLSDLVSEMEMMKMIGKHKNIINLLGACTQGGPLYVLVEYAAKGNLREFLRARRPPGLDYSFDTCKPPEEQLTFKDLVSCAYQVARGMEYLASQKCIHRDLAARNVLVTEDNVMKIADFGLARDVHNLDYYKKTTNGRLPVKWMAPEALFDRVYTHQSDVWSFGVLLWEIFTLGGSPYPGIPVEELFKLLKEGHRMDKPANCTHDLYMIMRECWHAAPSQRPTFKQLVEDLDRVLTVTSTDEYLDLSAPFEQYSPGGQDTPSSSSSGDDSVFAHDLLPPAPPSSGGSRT

Compound | ΔTm [1] | ΔTm (Peregrin (Homo sapiens))
Cc1cc(-c2nc(-c3ccc(OC(F)(F)F)cc3)no2)nn1Cc1ccnc(N2CCN(C3CC3)CC2)c1 | 1.28 °C | -10.7 °C
CC1=C(C(=O)OCCO)[C@@H](c2ccc(C#N)cc2)NC(=O)N1c1cccc(C(F)(F)F)c1 | 0.42 °C | -1.72 °C
O=C1CCC(N2Cc3cc(CNC(=O)C(F)(F)c4ccc(Cl)cc4)ccc3C2=O)C(=O)N1 (stereo not drawn) | 0.44 °C | -1.67 °C
CCCc1c(OCCCOc2ccc(OCC(=O)O)cc2)ccc(C(C)=O)c1O | 0.12 °C | -1.78 °C
COc1ccccc1S(=O)(=O)Nc1ccc2c(c1)CN(C)C(=O)N2 | 0.61 °C | 1.73 °C
CCC(=O)N[C@@H]1CC[C@H](C(=O)N(C)c2ccc(-c3nc4ccccc4o3)cc2)C1 | 0.71 °C | -1.58 °C
CCOc1ccc(S(=O)(=O)Nc2ccc(Cl)cc2C#Cc2cnc(C(=O)O)cc2OC)c2ncccc12 | -5.78 °C | -1.33 °C
CN1CCN(c2ccc(/C=C(\C#N)c3ccccc3Br)cc2)CC1 | 1.23 °C | -2.48 °C
CCOC(=O)C1Cc2ccccc2CN1C(=O)c1ccc(SC)s1 (stereo not drawn) | 0.41 °C | -1.13 °C
CCN(C(=O)CO)[C@H]1CN(/C(=N\C#N)Nc2cccc(OC(F)F)c2)N=C1c1ccc(Cl)c(Cl)c1 | 0.47 °C | -1.11 °C
Cc1nnc2n1-c1sc(CCC(=O)N3CCOCC3)cc1C(c1ccccc1Cl)=NC2 | 1.44 °C | -2.21 °C
Cc1csc(-c2nnc(Nc3ccc(Oc4ncccc4-c4ccnc(N)n4)cc3)c3ccccc23)c1 | -1.73 °C | -5.77 °C
N[C@@H](CC(=O)O)Cn1nnc(-c2ccc(Oc3ncc(Cl)cc3F)cc2)n1 | 0.43 °C | -3.09 °C
Cn1nc(C(=O)NCc2ccc(C(=O)O)cc2)cc1-c1ccc2[nH]ccc2c1 | 0.9 °C | -1.95 °C
O=C(Nc1ccnc(NC(=O)C2CC2)c1)c1c(Cl)cccc1Cl | 3.21 °C | -1.28 °C
Fc1ccc(-c2nc(-c3ccc4ccccc4c3F)[nH]c2-c2ccncc2)cc1 | 1.19 °C | 0.17 °C
COc1ccc2c(O[C@@H]3C[C@H]4C(=O)N[C@]5(C(=O)O)CC5/C=C\CCCCC[C@H](NC(=O)OC5CCCC5)C(=O)N4C3)cc(-c3csc(NC(=O)C(C)C)n3)nc2c1C (stereo partly drawn) | 1.07 °C [middle of 4 runs] | -1.17 °C [middle of 4 runs]
CN(C)C(=O)Cn1cc(-c2nc(C3(c4ccc(-c5cnc(N)nc5)cc4)CC3)no2)cn1 | 0.55 °C | -2.76 °C
O=C(O)[C@]1(Cc2cccc(Nc3nccs3)n2)CC[C@@H](Oc2cccc(Cl)c2F)CC1 | 6.09 °C | -3.28 °C
C[C@H](CCC(=O)O)[C@H]1CC[C@H]2[C@@H]3[C@@H](O)C[C@@H]4C[C@H](O)CC[C@]4(C)[C@H]3CC[C@]12C | 0.96 °C | -1.31 °C
COc1cc(N(C)c2ccnc3ccc(C(F)(F)F)cc23)cc(OC)c1OC | 0.76 °C | -1.93 °C
Cn1nc(-c2ccc(C(N)=O)cc2)c2ccccc2c1=O | 1.06 °C | -1.74 °C
CC(C)(O)c1coc(S(=O)(=O)NC(=O)Nc2c3c(cc4c2CCC4)CCC3)c1 | 0.84 °C | -2.87 °C
O=C(O)CCCc1cc2cc(Cl)ccc2n1S(=O)(=O)c1ccc2ncsc2c1 | 0.8 °C | -1.78 °C
CCCS(=O)(=O)Nc1ccc(F)c(Nc2ncnc3cnc(-n4cnc(C)c4)nc23)c1F | 1.06 °C | 0.01 °C
COc1nc2ccc([C@@](O)(c3ccccc3)C3CCN(C(C)=O)CC3)cc2c(Cl)c1Cc1ccc(-n2cccn2)cc1 | 5.87 °C | -1.27 °C
CCc1ccc(N(CC(C)C)S(=O)(=O)c2ccc(OCC3CCOCC3)c(CO)c2)cc1 | 0.5 °C | -0.2 °C

Compound | ΔTm [1] | ΔTm (Peregrin (Homo sapiens))
Nc1ncnc2[nH]c(-c3ccccc3)nc12 | 1.78 °C | -0.39 °C
Cc1cc(-c2cc3ncccc3c(OC[C@H]3CCCNC3)n2)ccc1N(C)C | 3.21 °C | -1.71 °C
CC(C)(C)c1cnc(CSc2cnc(NC(=O)C3CCN(CC(=O)NCCOCCOCCOCCNc4cccc5c4C(=O)N(C4CCC(=O)NC4=O)C5=O)CC3)s2)o1 (stereo not drawn) | 0.29 °C | -0.35 °C
c1ccc2c(-c3coc4cc(-c5ccc(N6CCNCC6)cc5)cnc34)ccnc2c1 | 1.12 °C | -2.26 °C
CN1CCN(c2ccc(-n3cc(-c4ccncc4OCC4CCNCC4)cn3)cc2)CC1 | 1.33 °C | -0.97 °C
Cc1cn(CCN2CCN(c3ccccc3-c3cc(C#N)cc(C(=O)NCCCN4CCCC4)c3)CC2)c2ccccc12 | -1.2 °C | 0.42 °C
CC(C)(O)CNC(=O)N1C(=O)N(c2cccc(C(F)(F)F)c2)C2=C(C(=O)CC2)[C@H]1c1ccc(C#N)cc1 | 0.72 °C | -1.94 °C
CSc1ccc(C[C@@H](C)C(=O)O)cc1Nc1nc(N2CC[C@H](N(C)C)C2)cc(C(F)F)c1C#N | 0.35 °C | -2.68 °C
COc1cc(C)c(S(=O)(=O)N(C)CCC(=O)N[C@H]2CC[C@@H](N3CCC4CN(C)CC4C3)CC2)c(C)c1 (stereo partly drawn) | 1.1 °C | -3.59 °C
Clc1cccc(Nc2nccc(NCCCN3CCOCC3)n2)c1 | 1.15 °C | -1.42 °C
CCn1c(=O)c2c(C)c(C(=O)N3CCC(O)CC3)sc2n(CCC(F)(F)F)c1=O | 0.45 °C | -1.95 °C
Cc1cn([C@@H](C)CC#N)c(=O)c2cc(Cn3nc(C(F)F)cc3Cl)nn12 | 0.93 °C | -1.08 °C
COc1cc(F)ccc1-c1cc(Nc2cc(CS(C)(=N)=O)ccn2)ncc1F (stereo not drawn) | 3.5 °C | -1.49 °C
O=C(CCCCCCc1ccccc1)c1ncc(-c2ccccn2)o1 | 0.46 °C | -3.08 °C
Cc1nc2ccc(Cl)cc2c(-c2ccccc2)c1CC(=O)O | 0.68 °C | -3.32 °C
COc1cnccc1Nc1nc(-c2nn(Cc3c(F)cc(OCCO)cc3F)c3ccccc23)ncc1OC | -7.58 °C | -6.89 °C
CC(=O)Nc1c(F)cc(C(=O)N[C@H]2CC[C@H](O)CC2)cc1O[C@@H](C)c1ccccc1 | 0.45 °C | -0.36 °C
C[C@H](CCC(=O)O)[C@H]1CC[C@H]2[C@@H]3CC[C@@H]4C[C@H](O)CC[C@]4(C)[C@H]3C[C@H](O)[C@]12C | 0.63 °C | -1.82 °C
CCN(CC)C(=O)C1CN2CCc3cc(OC)c(OC)cc3C2CC1OC(C)=O (stereo not drawn) | 0.43 °C | -2.07 °C
Cc1ncsc1-c1ccc(CNC(=O)[C@@H]2C[C@@H](O)CN2C(=O)[C@@H](NC(=O)C2(F)CC2)C(C)(C)C)c(OCCOc2ccc(CN3CCN(c4cc(-c5ccccc5O)nnc4N)CC3)cc2)c1 | -0.75 °C | 5.55 °C
CN1Cc2nccc(-c3cn(C)nc3-c3ccc(F)cc3)c2C1=O | 0.27 °C | -1.84 °C
CCn1c(CNC(=O)c2nc(Cl)cnc2N)[n+](CC)c2ccc(C(=O)N(C)CCN(C)C)cc21 | 0.5 °C | -1.87 °C
CC(C)c1nc2c(c3c1[C@@H](c1ccc(C(F)(F)F)cc1)OC31CCOCC1)[C@@H](O)CC(C)(C)C2 | 0.98 °C | -3.83 °C
CCCn1cc(-c2cc(C3C(=O)N(CC)c4ccc(C(F)(F)F)cc4N(c4ccccc4)C3=O)cc(OC)c2O)cn1 (stereo not drawn) | 0.46 °C | -1.21 °C
CN(C)C(=O)Cn1cc(-c2ccc(-c3cncc4ccccc34)cc2)cn1 | 0.29 °C | -2.52 °C
CN1CCN(c2ccnc(NCCc3ccccc3)n2)CC1 | 0.59 °C | -1.12 °C
COc1cccc(CNc2ccc(S(=O)(=O)Nc3nc4ccccc4s3)cc2)c1O | 1.44 °C | -0.69 °C

— ChEMBL document CHEMBL5308504, “Tm Shift (DSF) assay results for EUbOPEN Chemogenomics Library” (2023)
